Experimental data: US20260242745A1, “TISSUE ENGINEERED TUBE USING STEM CELL, AND METHOD FOR PRODUCING SAME” (TOHOKU UNIVERSITY, priority 2023, published 2026)
Bridges are numbered along the chain shown (N, C = ends). Where no end group is shown, it is not given here.

Key:
[1] = tested on: artificial blood vessels produced from 201B7 cells (iPS cells derived from healthy subjects); assay: Contraction of artificial blood vessels produced from 201B7 iPS cells in response to physiologically active substances; format: cell-based, human; conditions: for contraction rate after perfusion culture: 201B7 co-culture, immediately after start of perfusion culture vs third day of perfusion, FIG. 8B; for contraction reaction: artificial blood vessel of smooth muscle cells alone (201B7 vSMC) compared with 201B7 co-culture with endothelial cells, FIG. 8A; for concentration dependence of contraction rate: iPS cells derived from healthy subjects, U46619 0.05 nM to 0.5 nM, endothelin-1 100 nM to 1000 nM, n=5, FIG. 8C; for contraction reaction (same as with U46619): artificial blood vessels produced from 201B7 cells, physiological vasoconstrictors
Experimental: Next, it was analyzed whether the produced tissue engineered tube reproduces physiological reactions such as contraction and expansion with respect to a physiologically active substance. First, regarding artificial blood vessels produced from 201B7 cells, an artificial blood vessel of only smooth muscle cells (201B7 vSMC) and an artificial blood vessel obtained by seeding and co-culturing blood vessel endothelial cells induced to differentiate from 201B7 in an artificial blood vessel lumen (201B7 co-culture) were produced, and the contraction reaction due to U46619 and KCl was analyzed (FIG. 8A). U46619 is a stable synthetic analog of prostaglandin PGH2 and has an action of inducing blood vessel contraction as a thromboxane A2 receptor agonist. KCl is known to induce blood vessel contraction by membrane potential change. Since an individual difference may occur under a normal contraction amount, U46619 relative is a normalized value obtained by dividing the contraction amount when U46619 is applied by the contraction amount when KCl is applied, which indicates the maximum contraction force. […] NO is a vasodilator and is known to be released from blood vessel endothelial cells. Therefore, it is recognized that the produced artificial blood vessel reproduces the physiological mechanism. […] In the following experiments, artificial blood vessels co-cultured with endothelial cells were used unless otherwise specified.
In order to maintain a more physiological environment, perfusion culture was performed to examine whether the contraction rate was improved (FIG. 8B). Immediately after the start of perfusion culture, U46649 or KCl was applied to an artificial blood vessel produced from 201B7 cells (201B7 co-culture) on the third day of perfusion to analyze the contraction rate. […] It is known that blood vessel tissues change in phenotype, orientation, and the like and mature due to shear stress and blood pressure caused by perfusion culture.
It was analyzed whether the contraction of the artificial blood vessel with respect to U46619 and endothelin-1 depended on the concentration. Artificial blood vessels were produced using iPS cells derived from healthy subjects, and the contraction rates were measured while changing the concentrations of U46619 (0.05 nM to 0.5 nM) and endothelin-1 (100 nM to 1000 nM) (n=5). […] Therefore, it is recognized that the produced artificial blood vessels has have physiological properties.

[2] = tested on: artificial blood vessels produced from iPS cells derived from Werner syndrome patients (WS2-C5 co-culture); assay: Contraction of artificial blood vessels produced from Werner syndrome patient iPS cells compared with those from healthy subjects; format: cell-based, human; conditions: for contraction against stimulation, WS2-C5 co-culture vs 201B7 co-culture: n=4, FIG. 9A; for relative contraction rate, Werner derived vs WT derived iPSC blood vessels: 200 nM U46619 or 100 nM angiotensin II, contraction amount with 100 mM KCl as 100%, FIG. 9B
Experimental: Next, reactions to U46619 and KCl were analyzed using artificial blood vessels produced from Werner syndrome patients iPS (FIG. 9A). iPS cells derived from healthy subjects and Werner syndrome patients were induced to differentiate into smooth muscle cells and blood vessel endothelial cells to produce artificial blood vessels as described above, and contraction with respect to U46619 and KCl was analyzed.
In addition to U46619, the relative contraction rate was also determined for angiotensin II (FIG. 9B). The artificial blood vessel was contracted by 200 nM U46619 or 100 nM angiotensin II, and the relative contraction rate was calculated with the contraction amount when 100 mM KCl was applied as 100%. […] Hereinafter, the artificial blood vessels produced using iPS cells derived from healthy subjects may be referred to as WT derived iPSC blood vessels, and the artificial blood vessels produced using iPS cells derived from Werner syndrome patients may be referred to as Werner derived iPSC blood vessels.
Artificial blood vessels were produced from iPS cells derived from healthy subjects and Werner syndrome patients and subjected to perfusion culture, and the contraction by U46619 was analyzed (FIG. 9C). […] This is considered to be caused by a decrease in NO production ability of blood vessel endothelial cells derived from iPS cells of Werner syndrome patients.

Compound | contraction rate after perfusion culture [1] | contraction reaction [1] | contraction against stimulation, WS2-C5 co-culture vs 201B7 co-culture [2] | concentration dependence of contraction rate [1] | relative contraction rate, Werner derived vs WT derived iPSC blood vessels [2] | contraction after perfusion culture, Werner derived vs WT derived iPSC blood vessels ([2]; perfusion culture, FIG. 9C) | contraction reaction (same as with U46619) [1]
[Cl-].[K+] [KCl] | an improvement in contraction rate due to perfusion culture was observed | high contraction was observed | tended to contract more strongly | – | – | – | –
CCCCC[C@H](O)/C=C/[C@@H]1[C@@H](C/C=C\CCCC(=O)O)[C@H]2CO[C@@H]1C2 [U46619] | an improvement in contraction rate due to perfusion culture was observed | high contraction was observed | tended to contract more strongly | contracted in a concentration-dependent manner | exhibited stronger contraction force | an increase in contraction force was observed | –
angiotensin II (DRVYIHPF; Angiotensin-2; UniProt P01019 25-32, looked up) [physiological vasoconstrictor] | – | – | – | – | exhibited stronger contraction force | – | the same contraction reaction occurs
endothelin-1 (CSCSSLMDKECVYFCHLDIIW; disulfide 1-15, 3-11; ends not checked; UniProt P05305 53-73, looked up) [physiological vasoconstrictor] | – | – | – | contracted in a concentration-dependent manner | – | – | the same contraction reaction occurs
